Patent US20100160431A1, “Methods and Compositions for the Treatment of Viral Infections” (priority 2006, published 2010)

Legend:
[1] = cited from earlier work; for Human PK T½ / Tmax: humans
[2] = Release profile of amantadine and oseltamivir combination (USP II Paddle system, water); assay type: physicochemical
Excerpt: The cumulative fraction is the amount of drug substance released from the formulation matrix to the serum or gut environment (e.g., U.S. Pat. No. 4,839,177) or as measured with a USP II Paddle system using water as the dissolution medium.

[3] = in vivo; cited from earlier work
[4] = Time to steady state concentration with extended release amantadine or rimantadine; details: patient with influenza A; 100 mg or more once daily; formulated as in Example 5

In the case of `CC(=O)N[C@H]1[C@H]([C@H](O)[C@H](O)CO)OC(C(=O)O)=C[C@@H]1NC(=N)N` [zanamivir/RELENZA ®, zanamivir], the “Human PK T½” value [1] is listed as 2.5 to 5.1 h and the “Tmax” value [1] is listed as 1 to 2 h.

Work on `NC12CC3CC(CC(C3)C1)C2` [Amantadine, amantadine] yielded a cum. fraction ([2]; Time 1) of 0.2, a cum. fraction ([2]; Time 2) of 0.3 and a cum. fraction ([2]; Time 4) of 0.4. The cum. fraction ([2]; Time 8) was 0.5, the cum. fraction ([2]; Time 12) was 0.6 and the cum. fraction ([2]; Time 16) was 0.7. It also gave a cum. fraction ([2]; Time 20) of 0.8 and a cum. fraction ([2]; Time 24) of 0.9.

Work on `CCOC(=O)C1=C[C@@H](OC(CC)CC)[C@H](NC(C)=O)[C@@H](N)C1` [oseltamivir/TAMIFLU ®, oseltamivir] yielded a cum. fraction ([2]; Time 1) of 0.1, a cum. fraction ([2]; Time 2) of 0.15 and a cum. fraction ([2]; Time 4) of 0.2. For the same compound, the cum. fraction ([2]; Time 8) was 0.35, the cum. fraction ([2]; Time 12) was 0.5 and the cum. fraction ([2]; Time 16) was 0.65. The cum. fraction ([2]; Time 20) was 0.8, the cum. fraction ([2]; Time 24) was 1 and the T½ ([1]; head of Table 4) was “T½ = 3 hrs”. The “Human PK T½” value [1] was 3 h and the “Tmax” value [1] was 3 to 4 h.

For `CC(N)C12CC3CC(CC(C3)C1)C2` (centres unmarked) [Rimantadine, rimantadine], the “Dose Dependent Toxicity” value [3] is given as “Insomnia” and the “time to therapeutically effective steady state serum concentration” value [4] is given as “three”.
